Test results as given in US9707196B2, “Treatment agent and/or prophylactic agent for side effects of cancer drugs” (SBI Pharmaceuticals Co., Ltd., priority 2011, dated 2017).

Assays:
SD rats [1] = assay: Side effects on the kidney (nephrotoxicity) and weight loss accompanying cisplatin administration in rats, with or without ALA (Example 2); assay type: in vivo, rat; conditions: for Effect on side effects of anticancer agent on the kidney: FIGS. 4 to 6
Description: Serum creatinine and urea nitrogen value (BUN) were measured from blood samples. Moreover, urine protein was measured from urine samples.
Weight loss which is a side effect on general symptoms as well as a side effect related to the gastrointestinal system was also observed at the same time.
Forty-six 6 weeks-old SD rats (male) were purchased from Japan SLC, Inc. They were conditioned for 7 days after purchase. Body weight measurement, blood collection, and urine collection of each rat were performed at the end of the conditioning period. The experiment was started on the next day with 44 rats. Two individuals that had poor serum creatinine, urea nitrogen value (BUN), and urine protein value at the measurement after conditioning were excluded from the experiment.
In this experiment, experiment groups were divided into the following 4 groups I to IV according to the ALA administration condition. The experiment was otherwise performed similarly to Example 1.
Group I (negative control group): Saline was administered on Day 6 from the start of experiment. They were otherwise kept as usual. n=8
Group II (positive control group): CDDP was administered on Day 6 from the start of experiment. They were otherwise kept as usual. n=14
Group III (“post-administration group”): On Day 6 from the start of experiment, ALA was administered, and then CDDP was administered. ALA was also administered for 10 days from Day 6 to Day 15. They were otherwise kept as usual. n=10
Group IV (“full administration group”): ALA was administered for 15 days from the starting day of experiment to Day 15. On Day 6, ALA was administered, and then CDDP was administered. n=11
The body weight of each rat was measured, and blood and urine collection was carried out on starting day of experiment, Days 6, 7, 9, 11, 13, and 15. The collected blood samples were used for measuring serum creatinine and urea nitrogen value (BUN). In addition, the collected urine samples were used for measuring urine protein. Each rat was also dissected on Day 16, and the kidney was resected and observed.

SD rats [2] = assay: Side effects accompanying cisplatin administration in rats, with or without ALA (Example 1: survival, kidney HE staining, hair luster, stool state, activity); assay type: in vivo, rat; conditions: for Damage to the kidney (HE staining, Day 16): FIG. 2
Description: Forty-four 6 weeks-old SD rats (male) were purchased from Japan SLC, Inc. They were used for experiments after conditioning for 7 days after purchase.
The experiment duration was a total of 16 days, and experiment groups were divided into the following 5 groups I to V according to the ALA administration condition. […] CDDP administration dose was 8.0 mg/kg of body weight, and each rat was intraperitoneally administered. Saline was administered instead of cisplatin to Group I as the negative control group. ALA was also administered to Groups III, […], and V according to the following schedule. On the other hand, no ALA was administered to the positive control group (Group II). ALA administration to Groups III, IV, and V was performed by daily oral administration of 10 mg/kg of body weight of ALA hydrochloride salt+15.7 mg/kg of body weight of sodium ferrous citrate (dissolved in distilled water and sodium bicarbonate).
(ALA Administration Conditions of Groups I to V)
Group I (negative control group): Saline was administered on Day 6 from the start of experiment. They were otherwise kept as usual. n=4
Group II (positive control group): CDDP was administered on Day 6 from the start of experiment. They were otherwise kept as usual. n=10
Group III (“pre-administration group”): ALA was administered for a total of 5 days from the starting day of experiment to Day 5. CDDP was also administered on Day 6. They were otherwise kept as usual. n=10
Group IV (“post-administration group”): On Day 6 from the start of experiment, ALA was administered, and then CDDP was administered. ALA was also administered for 10 days from Day 6 to Day 15. They were otherwise kept as usual. n=9
Group V (“full administration group”): ALA was administered for 15 days from the starting day of experiment to Day 15. On Day 6, ALA was administered, and then CDDP was administered. n=9
Blood was collected every two days for 15 days from the starting day of experiment to Day 15. Observation of hair luster, stool state, and activity of rats was also carried out. Each rat was also dissected on Day 16, and the kidney was resected. Kidney sections were prepared after resection, and observed under a microscope after HE staining.
Side effects were strongly observed from Day 9 to Day 13 from the starting day of experiment. Accordingly, the state on Days 9, 11, and 13 were scored and evaluated. Hair luster here evaluates the side effect related to skin symptoms. Stool state evaluates the side effect related to the gastrointestinal system. Activity evaluates the side effect related to general symptoms, in particular evaluates the side effect related to malaise.
Each item was evaluated for each mouse by the following criteria, and is the numerical value of the sum of the three days (Days 9, 11, and 13) divided by the number of evaluation subject mice.
5: Very good, 4: ordinarily state, 3: slightly poor, 2: poor, and 1: death
5: Ordinarily stool, 4: small amount of stool, 3: slight diarrhea, 2: diarrhea, and 1: death
5: Ordinarily state, 4: weak movement, 3: slight movement, 2: no movement, and 1: death

[3] = tested on: 253J-BV cells (human urinary tract epithelium cancer cells); assay: Cell toxicity of cisplatin against 253J-BV cells with or without ALA (WST-8, Cell Counting Kit-8); assay type: cell-based; conditions: ALA hydrochloride salt 200 μM + sodium ferrous citrate 100 μM, any timing, FIG. 9
Description: (§1) It was validated whether or not ALA administration has an influence on the cell toxicity (anticancer effect) of anticancer agent against cancer cells.
(§2) The following cancer cells were employed in this experiment: T24 cells (human transitional cell bladder cancer cells) and 253J-BV cells (human urinary tract epithelium cancer cells). […] ALA hydrochloride salt was employed as ALA. In addition, sodium ferrous citrate was administered together with ALA administration.
(§3) Cell toxicity at each concentration was compared in the following Groups I to IV.
(§4) Group I: “No addition group,” i.e. the group with no ALA administered
(§5) Group II: “Pre-administration group,” i.e. the group with ALA administered only “during preculture”
(§6) (1) T24 cells (human transitional cell bladder cancer cells) or 253J-BV cells (human urinary tract epithelium cancer cells) were cultured with a 10 cm dish in DMEM medium comprising 10% FBS to a subconfluent state. They were then collected by trypsin treatment.
(§7) (2) For test groups Group I (no addition group) and Group III (simultaneous administration group), the cells collected in (1) were suspended to a density of 50000 cells/ml in DMEM medium comprising 10% FBS. […]

[4] = tested on: T24 cells (human transitional cell bladder cancer cells); assay: Cell toxicity of cisplatin against T24 cells with or without ALA (WST-8, Cell Counting Kit-8); assay type: cell-based; conditions: ALA hydrochloride salt 200 μM + sodium ferrous citrate 100 μM, any timing, FIG. 8
Description: as §1, §2, §3, §4, §5, §6, §7

[5] = Case of an advanced colon cancer patient taking aminolevulinic acid phosphate salt and sodium ferrous citrate concurrently with anticancer agent therapy (Example 4); assay type: in vivo, human; conditions: one patient
[6] = Group III (pre-administration): ALA hydrochloride salt 10 mg/kg + sodium ferrous citrate 15.7 mg/kg oral daily to Day 5, CDDP 8.0 mg/kg i.p. Day 6, sum of scores of Days 9, 11, 13 per animal
[7] = Group IV (post-administration): ALA hydrochloride salt 10 mg/kg + sodium ferrous citrate 15.7 mg/kg oral daily Day 6 to Day 15, CDDP 8.0 mg/kg i.p. Day 6, sum of scores of Days 9, 11, 13 per animal
[8] = Group V (full administration): ALA hydrochloride salt 10 mg/kg + sodium ferrous citrate 15.7 mg/kg oral daily from starting day to Day 15, CDDP 8.0 mg/kg i.p. Day 6, sum of scores of Days 9, 11, 13 per animal
[9] = Groups III, IV and V (ALA + CDDP) versus Group II, FIG. 1

Molecule: NCC(=O)CCC(=O)O [ALA, 5-aminolevulinic acid]
- Effect on weight loss (SD rats [1]; Group III (post-administration) + CDDP, FIG. 3): a certain effect
- Effect on side effects of anticancer agent on the kidney (SD rats [1]; Group III (post-administration) + CDDP): a certain effect
- Decrease in body weight (SD rats [1]; Group III (post-administration) and Group IV (full administration), ALA + CDDP, FIG. 3): decreased in body weight due to the side effects from anticancer agent was suppressed
- Re-increase of body weight (SD rats [1]; Group III and Group IV, ALA + CDDP, FIG. 3): re-increase of body weight was observed on Day 5 and after
- Urine protein value (SD rats [1]; Group III and Group IV, ALA + CDDP, slight increase on Day 3, FIG. 6): a value not much different from the negative control group was maintained
- Serum creatinine value (SD rats [1]; Group III and Group IV, ALA + CDDP, slight increase on Day 5, FIG. 4): a value not much different from the negative control group was maintained
- Urea nitrogen value (BUN) (SD rats [1]; Group III and Group IV, ALA + CDDP, slight increase on Day 5, FIG. 5): a value not much different from the negative control group was maintained
- Effect on weight loss (SD rats [1]; Group IV (full administration) + CDDP, FIG. 3): the most effective
- Effect on side effects of anticancer agent on the kidney (SD rats [1]; Group IV (full administration) + CDDP): the most effective
- Damage to the kidney (HE staining, Day 16) (SD rats [2]; ALA-administered groups + CDDP): alleviated the damage to the kidney
- Damage to the kidney (HE staining, Day 16) (SD rats [2]; Group III (pre-administration) and Group IV (post-administration) + CDDP): a certain effect
- Rat survival rate (SD rats [2]; Group III (pre-administration) or Group IV (post-administration) + CDDP, FIG. 1): a certain suppression effect
- Activity (final evaluation) (SD rats [2]; [6]): 8.10
- Hair luster (final evaluation) (SD rats [2]; [6]): 8.10
- Overall evaluation (final evaluation) (SD rats [2]; [6]): 7.50
- Stool state (final evaluation) (SD rats [2]; [6]): 8.90
- Activity (final evaluation) (SD rats [2]; [7]): 9.56
- Hair luster (final evaluation) (SD rats [2]; [7]): 8.89
- Overall evaluation (final evaluation) (SD rats [2]; [7]): 8.78
- Stool state (final evaluation) (SD rats [2]; [7]): 10.78
- Damage to the kidney (HE staining, Day 16) (SD rats [2]; Group V (full administration) + CDDP): the most effective
- Activity (final evaluation) (SD rats [2]; [8]): 11.33
- Hair luster (final evaluation) (SD rats [2]; [8]): 11.33
- Overall evaluation (final evaluation) (SD rats [2]; [8]): 9.67
- Stool state (final evaluation) (SD rats [2]; [8]): 13.33
- Rat survival rate (SD rats [2]; Group V (full administration, ALA throughout) + CDDP, FIG. 1): highest survival rate
- Rat survival rate until Day 16 (SD rats [2]; [9]): reduction in the survival rate until Day 16 could be suppressed
- Timing of the start of reduction in the survival rate (SD rats [2]; [9]): the timing of the start of reduction in the survival rate was delayed
- Influence of ALA administration on anticancer effect of cisplatin [3]: hardly attenuated
- Influence of ALA administration on anticancer effect of cisplatin [4]: hardly attenuated

Molecule: aminolevulinic acid phosphate salt
- Time for which anticancer agent therapy could be continued after the surgery ([5]; FOLFOX, FOLFIRI and Avastin with oral 50 mg aminolevulinic acid phosphate salt + 57.4 mg sodium ferrous citrate per day): one year
- Hemoglobin ([5]; Jan. 28, 2011, about 1 year and 5 months after starting oral 50 mg aminolevulinic acid phosphate salt + 57.4 mg sodium ferrous citrate per day, just before surgery 9.80): 12.20 g/dL
- Number of Leukocytes ([5]; Jan. 28, 2011, about 1 year and 5 months after starting oral 50 mg aminolevulinic acid phosphate salt + 57.4 mg sodium ferrous citrate per day, just before surgery 13.20): 6200 µL⁻¹
- Number of Erythrocytes ([5]; Jan. 28, 2011, about 1 year and 5 months after starting oral 50 mg aminolevulinic acid phosphate salt + 57.4 mg sodium ferrous citrate per day, just before surgery (Aug. 19, 2009) 2.97): 3.44e+06 µL⁻¹
- Anemia improvement effect ([5]; about 1 year and 5 months after starting intake, with sodium ferrous citrate): anemia as a side effect of administration of anticancer agent is improved
- Survival after surgery ([5]; declared life expectancy 3 months, oral 50 mg aminolevulinic acid phosphate salt + 57.4 mg sodium ferrous citrate per day): one and a half years

Molecule: N.N.[Cl][Pt][Cl] [cisplatin, reference compound]
- Rat survival rate (SD rats [2]; Group II (positive control): CDDP 8.0 mg/kg i.p. Day 6, no ALA, FIG. 1): reduction in the survival rate was seen on Day 9
- Hair luster (final evaluation) (SD rats [2]; Group II (positive control): CDDP 8.0 mg/kg i.p. on Day 6, no ALA, sum of scores (5 best, 1 death) of Days 9, 11, 13 divided by number of animals): 7.80
